Legend:
Type in all cases: physicochemical
[1] = Crystalline stability against humidity (XRPD); conditions: no conversion into another crystalline form by XRPD
Protocol: Powder X-ray diffraction was performed with a Rigaku MiniFlex 600 diffractometer with Bragg-Brentano geometry CuKa radiation and D/teX Ultra Detector. The powder X-ray diffraction patterns were recorded at a tube voltage of 40kV and a tube current of 15 mA, applying a step size of 0.01° and speed 6.0°/min with the angular range 3-36° at ambient conditions.
A test for crystalline stability against humidity can be performed as follows: The sample is exposed to a relative humidity of 75% (±5%) at 40°C (±2°C) for 4 weeks. The expression "crystalline stability" means that no conversion into another crystalline form occurs, as determined by XRPD.
The equilibrium relative humidity of a sample is measured by determining the relative humidity in % in the air above a test sample, after establishment of a humidity equilibrium in a closed/open system at a constant temperature.
A test for crystalline stability against humidity has been performed as follows: The sample is exposed to a relative humidity of 75% (±5%) at 40°C(±2°C) for 4 weeks. The expression "crystalline stability" means that no conversion into another crystalline form occurs, as determined by XRPD.

[2] = Chemical stability under accelerated ICH storage conditions (HPLC); conditions: for Impurities (HPLC % a/a) RRT 1.40 / Impurities (HPLC % a/a) RRT 1.70 / Impurities (HPLC % a/a) RRT 2.20 / Impurities (HPLC % a/a) RRT 1.30 / Impurities (HPLC % a/a) RRT 1.41: 40°C, 75 ± 5% RH
Protocol: Purity and assay analysis was carried out using High Performance Liquid Chromatograph equipped with PDA detector. The analysis was conducted using Octadecyl silane (ODA or C18) chemically bonded to porous silica column, at a temperature of 40°C. The mobile phases was acetonitrile and 0.1% (v/v) ortho-phosphoric acid in water used in gradient.
Chemical stability study of the new crystalline forms of baricitinib i.e. PPH form I and PPH form II was performed under accelerated ICH storage conditions (40°C, 75±5% relative humidity). Samples were taken periodically (0 (start), after 1, 2, and 4 weeks) and analyzed by HPLC. Table 4 : HPLC purity of PPH form I of baricitinib

[3] = Hygroscopicity (statement, no method described)

With CCS(=O)(=O)N1CC(CC#N)(n2cc(-c3ncnc4[nH]ccc34)cn2)C1 [PPH form II, {1-(Ethylsulfonyl)-3-[4-(7H-pyrrolo[2,3-d]pyrimidin-4-yl)-1H-pyrazol-1-yl]-3-azetidinyl}acetonitrile] as the compound, how does the “Crystalline stability study 40°C, 75 ± 5% RH After 4 weeks” value ([1]; listed as PPH form II (Example 4)) read?
Its value is “Stable”.

What about the “Crystalline stability study 40°C, 75 ± 5% RH After 4 weeks” value ([1]; listed as PPH form II of baricitinib) of the same compound?
The value was “stable”.

And the “Impurities (HPLC % a/a) RRT 1.40” value ([2]; week 0)?
The value was 0.03 % a/a.

What about the “Impurities (HPLC % a/a) RRT 1.70” value ([2]; week 0) of the same compound?
The value was 0.17 % a/a.

And the “Impurities (HPLC % a/a) RRT 2.20” value ([2]; week 0)?
Its value is 0.15 % a/a.

And the “Impurities (HPLC % a/a) RRT 1.40” value ([2]; week 1)?
The value was 0.03 % a/a.

And the “Impurities (HPLC % a/a) RRT 1.70” value ([2]; week 1)?
The value was 0.17 % a/a.

What about the “Impurities (HPLC % a/a) RRT 2.20” value ([2]; week 1) of the same compound?
Its value is 0.15 % a/a.

What about the “Impurities (HPLC % a/a) RRT 1.40” value ([2]; week 2) of the same compound?
The value was 0.03 % a/a.

What about the “Impurities (HPLC % a/a) RRT 1.70” value ([2]; week 2) of the same compound?
Its value is 0.17 % a/a.

And the “Impurities (HPLC % a/a) RRT 2.20” value ([2]; week 2)?
The value was 0.15 % a/a.

What about the “Impurities (HPLC % a/a) RRT 1.40” value ([2]; week 4) of the same compound?
Its value is 0.03 % a/a.

And the “Impurities (HPLC % a/a) RRT 1.70” value ([2]; week 4)?
Its value is 0.17 % a/a.

And the “Impurities (HPLC % a/a) RRT 2.20” value ([2]; week 4)?
Its value is 0.15 % a/a.

What does the source list for CCS(=O)(=O)N1CC(CC#N)(n2cc(-c3ncnc4[nH]ccc34)cn2)C1 [PPH form I, {1-(Ethylsulfonyl)-3-[4-(7H-pyrrolo[2,3-d]pyrimidin-4-yl)-1H-pyrazol-1-yl]-3-azetidinyl}acetonitrile]?
Crystalline stability study 40°C, 75 ± 5% RH After 1 week ([1]; after 1 week): Stable; Crystalline stability study 40°C, 75 ± 5% RH After 4 weeks [1]: Stable; Impurities (HPLC % a/a) RRT 1.30 ([2]; week 0): 0.01 % a/a; Impurities (HPLC % a/a) RRT 1.41 ([2]; week 0): 0.03 % a/a; Impurities (HPLC % a/a) RRT 1.30 ([2]; week 1): 0.01 % a/a; Impurities (HPLC % a/a) RRT 1.41 ([2]; week 1): 0.03 % a/a; Impurities (HPLC % a/a) RRT 1.30 ([2]; week 2): 0.01 % a/a; Impurities (HPLC % a/a) RRT 1.41 ([2]; week 2): 0.03 % a/a; Impurities (HPLC % a/a) RRT 1.30 ([2]; week 4): 0.01 % a/a; Impurities (HPLC % a/a) RRT 1.41 ([2]; week 4): 0.03 % a/a; Chemical stability (HPLC results) ([2]; during 0, 1, 2 and 4 weeks at 40°C, 75 ± 5% relative humidity): stable; Hygroscopicity [3]: substantially non-hygroscopic
